Measurements reported in patent US20250339436A1, “CRYSTALLINE FORMS OF MRTX1133” (MIRATI THERAPEUTICS, INC., priority 2024, published 2025).
“Also recorded” adds a separate entry of the source. Marks after values point to notes of the source that are not given here. Each block holds one compound with its values, some of them ahead of it.

How the values were obtained:
Assay type in all cases: physicochemical
[1] = Accelerated stability study of MRTX1133 amorphous form vs crystalline Forms VIII and IX; settings: for stability under the conditions tested (conclusion): 25° C./60% RH and 40° C./75% RH; for trend of impurity values and assay results: all tested storage conditions
Procedure: Chemical stability and water content studies were conducted on amorphous MRTX1133 and MRTX1133 Forms VIII and IX according to well-known methods summarized below.
The stability studies of the amorphous form were done as follows.
The required amount was placed in a clear Class A glass bottle, 24 mL, with closed-top cap, sealed in opaque resealable Zipper bag. Per each storage condition there was one bottle, and the sampling was performed from the same bottle. Each bottle was labeled with protocol number, compound ID, lot number and storage condition.
The experimental conditions for stability testing of Forms VIII and IX were similar. However, the samples were placed in double LDPE bags filled with nitrogen protection, then placed into a heat-sealed foil bag, and into an HDPE container containing desiccant packs.

[2] = Dynamic vapor sorption (DVS); settings: 25° C./95% RH
Procedure: Dynamic Vapor Sorption (DVS)
Instrument: Intrinsic, Advantage or Adventure;
Total gas flow: 200 sccm; oven temperature: 25° C., solvent: water; method: • Cycle: 40-0-95-0-40% RH • Stage Step: 10% • Equilibrium: 0.002 dm/dt (%/min) Minimum dm/dt stability duration: 60 min • Maximum dm/dt stage time: 360 min

[3] = Bulk stability studies of MRTX1133 Forms II, VI, VIII and IX (solid state, 1-2 weeks); settings: for Initial Purity by UPLC: before storage
Procedure: Stability studies of all four forms were conducted according to well-known methods. The results are summarized below in Tables 4-11.

[4] = Thermogravimetric analysis (TGA)
Procedure: Thermogravimetric Analysis (TGA)
Instrument: Discovery 5500
Parameters: Nitrogen Flow balance 10 mL/min; sample 25 mL/min; start temperature: ambient condition (below 35° C.); final temperature: 300° C.; heating rate: 10° C./min; sample mass ˜2-10 mg. […]

[5] = 40° C./75% RH, 2M, by HPLC, listed as amorphous
[6] = 40° C./75% RH, 3M, by HPLC, listed as amorphous
[7] = 25° C./60% RH, open container, 1 week
[8] = 25° C./60% RH, open container, 2 weeks
[9] = 25° C./92.5% RH, open container, 1 week
[10] = 25° C./92.5% RH, open container, 2 weeks
[11] = 40° C./75% RH, open container, 1 week
[12] = 40° C./75% RH, open container, 2 weeks
[13] = 60° C., tight container, 1 week
[14] = 60° C., tight container, 2 weeks

SMILES: C#Cc1c(F)ccc2cc(O)cc(-c3ncc4c(N5CC6CCC(C5)N6)nc(OC[C@@]56CCCN5C[C@H](F)C6)nc4c3F)c12 [Amorphous]
stability under the conditions tested (conclusion) [1]: not stable | Moisture ([1]; 25° C./60% RH, 1M): 3.4 % w/w | Assay ([1]; 25° C./60% RH, 1M, by HPLC): 89.5 w/w % | Total Impurities ≥ 0.05% ([1]; 25° C./60% RH, 1M, by HPLC): 4.35 Area % | Moisture ([1]; 25° C./60% RH, 2M): 4.2 % w/w | Assay ([1]; 25° C./60% RH, 2M, by HPLC): 87.7 w/w % | Total Impurities ≥ 0.05% ([1]; 25° C./60% RH, 2M, by HPLC): 4.74 Area % | Moisture ([1]; 25° C./60% RH, 3M): 4.6 % w/w | Assay ([1]; 25° C./60% RH, 3M, by HPLC): 86.1 w/w % | Total Impurities ≥ 0.05% ([1]; 25° C./60% RH, 3M, by HPLC): 6.13 Area % | Moisture ([1]; 40° C./75% RH, 1M): 2.7 % w/w | Assay ([1]; 40° C./75% RH, 1M, by HPLC): 82.8 w/w % | Total Impurities ≥ 0.05% ([1]; 40° C./75% RH, 1M, by HPLC): 8.03 Area % | Moisture ([1]; 40° C./75% RH, 2M): 5.2 % w/w | Assay ([1]; 40° C./75% RH, 2M, by HPLC): 70.1 w/w % | Total Impurities ≥ 0.05% ([1]; 40° C./75% RH, 2M, by HPLC): 13.21 Area % | Assay [1, 5]: 70 w/w % | Total Impurities ≥ 0.05% [1, 5]: 13.2 Area % | Moisture ([1]; 40° C./75% RH, 3M): 5.8 % w/w | Assay ([1]; 40° C./75% RH, 3M, by HPLC): 61.3 w/w % | Total Impurities ≥ 0.05% ([1]; 40° C./75% RH, 3M, by HPLC): 17.75 Area % | Assay [1, 6]: 61 w/w % | Total Impurities ≥ 0.05% [1, 6]: 17.8 Area % | Moisture ([1]; T(0)): 2.9 % w/w | Total Impurities ≥ 0.05% ([1]; T(0), by HPLC): 2.24 Area % | Total Impurities ≥ 0.05% ([1]; T(0), by HPLC, listed as amorphous): 2.2 Area % | Assay ([1]; T(0), by Q-NMR): 94.2^b w/w % | Assay ([1]; T(0), by Q-NMR, listed as amorphous): 94 w/w % | trend of impurity values and assay results [1]: substantial increases in impurity values and corresponding decreases in assay results

water uptake by DVS [2]: about 1.3% | water uptake by DVS ([2]; listed as MRTX1133 Form VIII): 1.3% water uptake at | Bulk (UPLC) purity [3, 7]: 98.0% | Bulk (UPLC) purity [3, 8]: 98.0% | Bulk (XRPD) form [3, 8]: No form change | Bulk color [3, 8]: no change of color | Bulk (UPLC) purity [3, 9]: 98.1% | Bulk (UPLC) purity [3, 10]: 98.0% | Bulk (XRPD) form [3, 10]: No form change | Bulk color [3, 10]: no change of color | Bulk (UPLC) purity [3, 11]: 98.0% | Bulk (XRPD) form [3, 11]: No form change | Bulk (UPLC) purity [3, 12]: 98.1% | Bulk (XRPD) form [3, 12]: No form change | Bulk color [3, 12]: no change of color | Bulk (UPLC) purity [3, 13]: 98.1% | Bulk (UPLC) purity [3, 14]: 98.1% | Bulk (XRPD) form [3, 14]: No form change | Bulk color [3, 14]: no change of color | Initial Purity by UPLC [3]: 98.0% | stability under the conditions tested (conclusion) [1]: much more stable; also recorded: stable | Moisture ([1]; 25° C./60% RH, 1M): 0.64 % w/w | Assay ([1]; 25° C./60% RH, 1M, by HPLC): 96.8 w/w % | Total Impurities ≥ 0.05% ([1]; 25° C./60% RH, 1M, by HPLC): 2.1 Area % | Moisture ([1]; 25° C./60% RH, 3M): 0.49 % w/w | Assay ([1]; 25° C./60% RH, 3M, by HPLC): 97.3 w/w % | Total Impurities ≥ 0.05% ([1]; 25° C./60% RH, 3M, by HPLC): 2.1 Area % | Moisture ([1]; 25° C./60% RH, 6M): 0.53 % w/w | Assay ([1]; 25° C./60% RH, 6M, by HPLC): 96.4 w/w % | Total Impurities ≥ 0.05% ([1]; 25° C./60% RH, 6M, by HPLC): 1.9 Area % | moisture content trend ([1]; 40° C./75% RH): relatively stable | Moisture ([1]; 40° C./75% RH, 1M): 0.62 % w/w | Assay ([1]; 40° C./75% RH, 1M, by HPLC): 96.6 w/w % | Total Impurities ≥ 0.05% ([1]; 40° C./75% RH, 1M, by HPLC): 2.2 Area % | Moisture ([1]; 40° C./75% RH, 3M): 0.54 % w/w | Assay ([1]; 40° C./75% RH, 3M, by HPLC): 97.4 w/w % | Total Impurities ≥ 0.05% ([1]; 40° C./75% RH, 3M, by HPLC): 2.3 Area % | Moisture ([1]; 40° C./75% RH, 6M): 0.78 % w/w | Assay ([1]; 40° C./75% RH, 6M, by HPLC): 96.1 w/w % | Total Impurities ≥ 0.05% ([1]; 40° C./75% RH, 6M, by HPLC): 2.2 Area % | Moisture ([1]; T(0)): 0.55 % w/w | Assay ([1]; T(0), by HPLC): 96.9 w/w % | Total Impurities ≥ 0.05% ([1]; T(0), by HPLC): 2.5 Area % | onset of degradation as estimated by TGA [4]: about 180 °C | weight loss observed by TGA ([4]; before 180° C. (onset of degradation)): about 0.7% | weight loss observed by TGA ([4]; before 180° C. (onset of degradation), listed as MRTX1133 Form VIII): 0.7% weight loss observed
SMILES: C#Cc1c(F)ccc2cc(O)cc(-c3ncc4c(N5C[C@H]6CC[C@@H](C5)N6)nc(OC[C@@]56CCCN5C[C@H](F)C6)nc4c3F)c12 [Form VIII, 4-(4-((1R,5S)-3,8-diazabicyclo[3.2.1]octan-3-yl)-8-fluoro-2-(((2R,7aS)-2-fluorohexahydro-1H-pyrrolizin-7a-yl)methoxy)pyrido[4,3-d]pyrimidin-7-yl)-5-ethynyl-6-fluoronaphthalen-2-ol]
trend of impurity values and assay results [1]: no increases in impurity values and no decreases in assay results

Bulk (UPLC) purity [3, 7]: 98.0% | Bulk (UPLC) purity [3, 8]: 98.0% | Bulk (XRPD) form [3, 8]: No form change | Bulk color [3, 8]: no change of color | Bulk (UPLC) purity [3, 9]: 97.9% | Bulk (UPLC) purity [3, 10]: 98.1% | Bulk (XRPD) form [3, 10]: No form change | Bulk color [3, 10]: no change of color | Bulk (UPLC) purity [3, 11]: 97.8% | Bulk (XRPD) form [3, 11]: No form change | Bulk (UPLC) purity [3, 12]: 98.0% | Bulk (XRPD) form [3, 12]: No form change | Bulk color [3, 12]: no change of color | Bulk (UPLC) purity [3, 13]: 97.9% | Bulk (UPLC) purity [3, 14]: 98.1% | Bulk (XRPD) form [3, 14]: No form change | Bulk color [3, 14]: no change of color | Initial Purity by UPLC [3]: 97.9% | stability under the conditions tested (conclusion) [1]: much more stable; also recorded: stable | Moisture ([1]; 25° C./60% RH, 1M): 0.56 % w/w | Assay ([1]; 25° C./60% RH, 1M, by HPLC): 98.0 w/w % | Total Impurities ≥ 0.05% ([1]; 25° C./60% RH, 1M, by HPLC): 1.5 Area % | Moisture ([1]; 25° C./60% RH, 2M): 0.65 % w/w | Assay ([1]; 25° C./60% RH, 2M, by HPLC): 97.6 w/w % | Total Impurities ≥ 0.05% ([1]; 25° C./60% RH, 2M, by HPLC): 1.4 Area % | Moisture ([1]; 25° C./60% RH, 3M): 0.70 % w/w | Assay ([1]; 25° C./60% RH, 3M, by HPLC): 98.2 w/w % | Total Impurities ≥ 0.05% ([1]; 25° C./60% RH, 3M, by HPLC): 1.7 Area % | Moisture ([1]; 25° C./60% RH, 6M): 0.66 % w/w | Assay ([1]; 25° C./60% RH, 6M, by HPLC): 98.5 w/w % | Total Impurities ≥ 0.05% ([1]; 25° C./60% RH, 6M, by HPLC): 1.7 Area % | moisture content trend ([1]; 40° C./75% RH): relatively stable | Moisture ([1]; 40° C./75% RH, 1M): 0.56 % w/w | Assay ([1]; 40° C./75% RH, 1M, by HPLC): 97.6 w/w % | Total Impurities ≥ 0.05% ([1]; 40° C./75% RH, 1M, by HPLC): 1.8 Area % | Moisture ([1]; 40° C./75% RH, 2M): 0.63 % w/w | Assay ([1]; 40° C./75% RH, 2M, by HPLC): 97.3 w/w % | Total Impurities ≥ 0.05% ([1]; 40° C./75% RH, 2M, by HPLC): 1.8 Area % | Moisture ([1]; 40° C./75% RH, 3M): 0.66 % w/w | Assay ([1]; 40° C./75% RH, 3M, by HPLC): 96.5 w/w % | Total Impurities ≥ 0.05% ([1]; 40° C./75% RH, 3M, by HPLC): 2.0 Area % | Moisture ([1]; 40° C./75% RH, 6M): 0.70 % w/w | Assay ([1]; 40° C./75% RH, 6M, by HPLC): 96.9 w/w % | Total Impurities ≥ 0.05% ([1]; 40° C./75% RH, 6M, by HPLC): 2.3 Area % | Moisture ([1]; T(0)): 0.94 % w/w | Assay ([1]; T(0), by HPLC): 96.2 w/w % | Total Impurities ≥ 0.05% ([1]; T(0), by HPLC): 1.2 Area % | onset of degradation as estimated by TGA [4]: about 190 °C | weight loss observed by TGA ([4]; before 190° C. (onset of degradation)): about 0.5% | weight loss observed by TGA ([4]; before 190° C. (onset of degradation), listed as MRTX1133 Form IX): 0.5% weight loss observed
SMILES: C#Cc1c(F)ccc2cc(O)cc(-c3ncc4c(N5C[C@H]6CC[C@@H](C5)N6)nc(OC[C@@]56CCCN5C[C@H](F)C6)nc4c3F)c12 [Form IX, 4-(4-((1R,5S)-3,8-diazabicyclo[3.2.1]octan-3-yl)-8-fluoro-2-(((2R,7aS)-2-fluorohexahydro-1H-pyrrolizin-7a-yl)methoxy)pyrido[4,3-d]pyrimidin-7-yl)-5-ethynyl-6-fluoronaphthalen-2-ol]
trend of impurity values and assay results [1]: no increases in impurity values and no decreases in assay results
